According to ChEMBL document CHEMBL3864166, “4-Carbonyl-2,6-dibenzylidenecyclohexanone derivatives as small molecule inhibitors of STAT3 signaling pathway” (Bioorg Med Chem, 2016):
Calls of active or inactive are those of the source. No cut-off for these calls is given here.

Experiments:
[1] = Antiproliferative activity against human DU145 cells after 48 hrs by MTT assay; type: functional, cell-based; settings: DU-145, 48 h
[2] = Antiproliferative activity against human MDA-MB-231 cells after 48 hrs by MTT assay; type: functional, cell-based; settings: MDA-MB-231, 48 h
[3] = Antiproliferative activity against human A549 cells after 48 hrs by MTT assay; type: functional, cell-based; settings: A549, 48 h
[4] = biological target: T1, Signal transducer and activator of transcription 3 (Homo sapiens, UniProt P40763); experiment: Inhibition of STAT3 phosphorylation at tyr705 in human A549 cells after 24 hrs by Western blot analysisis; type: cell-based
[5] = biological target: T1, Signal transducer and activator of transcription 3; experiment: Inhibition of STAT3 phosphorylation at tyr705 in human A549 cells at 4 uM after 24 hrs by Western blot analysisis; type: cell-based
[6] = biological target: T1, Signal transducer and activator of transcription 3; experiment: Binding affinity to STAT3 (unknown origin) expressed in Escherichia coli expression system by SPR assay
[7] = biological target: T1, Signal transducer and activator of transcription 3; experiment: Inhibition of STAT3 phosphorylation at tyr705 in human MDA-MB-231 cells after 24 hrs by Western blot analysisis; type: cell-based
[8] = Cytotoxicity against human HL-7702 cells assessed as reduction in cell viability after 48 hrs by MTT assay; type: toxicity, cell-based; settings: l02, 48 h
[9] = Effect on total STAT3 protein expression in human A549 cells at 1 to 4 uM after 24 hrs by Western blot analysis; type: ADME, cell-based; settings: a549, 24 h
[10] = biological target: T1, Signal transducer and activator of transcription 3; experiment: Inhibition of STAT3 phosphorylation at tyr705 in human MDA-MB-231 cells at 4 uM after 24 hrs by Western blot analysisis; type: cell-based
A549 [11] = experiment: Induction of apoptosis in human A549 cells assessed increase in cleaved PARP levels up to 4 uM after 24 hrs by Western blot analysisis; type: functional, cell-based
MDA-MB-231 = experiment: Induction of apoptosis in human MDA-MB-231 cells assessed increase in cleaved PARP levels at 1 to 4 uM after 24 hrs by Western blot analysisis; type: functional, cell-based
DU-145 = experiment: Selectivity ratio of IC50 for human DU145 cells to IC50 for human MDA-MB-231 cells; type: functional
[12] = biological target: T1, Signal transducer and activator of transcription 3; experiment: Inhibition of IL6-stimulated STAT3 phosphorylation at Tyr-705 residue in human MDA-MB-231 cells at 1 to 4 uM preincubated for 2 hrs followed by IL6 stimulation measured after 30 mins by Western blot analysisis; type: cell-based
[13] = Downregulation of IL6-stimulated STAT3 expression in human MDA-MB-231 cells at 1 to 4 uM preincubated for 2 hrs followed by IL6 stimulation measured after 30 mins by Western blot analysisis; type: functional, cell-based
[14] = Effect on total STAT3 protein expression in human MDA-MB-231 cells at 1 to 4 uM after 24 hrs by Western blot analysis; type: ADME, cell-based; settings: mda-mb-231, 24 h
A549 [15] = experiment: Selectivity ratio of IC50 for human DU145 cells to IC50 for human A549 cells; type: functional

T1 sequence (P40763 whole entry): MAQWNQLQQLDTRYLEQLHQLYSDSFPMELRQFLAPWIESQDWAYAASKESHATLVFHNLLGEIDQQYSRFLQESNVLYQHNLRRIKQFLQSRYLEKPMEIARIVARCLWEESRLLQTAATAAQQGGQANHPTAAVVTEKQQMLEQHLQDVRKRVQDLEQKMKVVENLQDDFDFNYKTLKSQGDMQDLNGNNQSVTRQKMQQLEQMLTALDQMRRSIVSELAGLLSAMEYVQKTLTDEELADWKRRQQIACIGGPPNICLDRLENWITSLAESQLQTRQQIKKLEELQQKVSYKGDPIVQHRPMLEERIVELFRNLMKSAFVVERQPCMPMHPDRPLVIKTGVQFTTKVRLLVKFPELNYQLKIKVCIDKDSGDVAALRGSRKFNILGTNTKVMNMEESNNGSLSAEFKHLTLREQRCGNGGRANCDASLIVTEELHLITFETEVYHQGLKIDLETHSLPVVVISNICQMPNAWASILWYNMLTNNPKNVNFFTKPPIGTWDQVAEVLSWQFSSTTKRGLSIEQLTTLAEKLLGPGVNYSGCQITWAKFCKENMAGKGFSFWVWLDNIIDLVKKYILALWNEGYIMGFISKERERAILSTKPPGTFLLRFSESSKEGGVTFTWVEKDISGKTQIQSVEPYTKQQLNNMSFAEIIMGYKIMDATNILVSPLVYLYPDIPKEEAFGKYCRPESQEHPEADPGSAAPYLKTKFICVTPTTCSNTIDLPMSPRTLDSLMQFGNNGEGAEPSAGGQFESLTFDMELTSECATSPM

Row | SMILES | IC50 [1] | IC50 [2] | IC50 [3] | Ratio IC50 (DU-145) | other results
1 | COc1ccc(/C=C2\CC(C(=O)Nc3ccc(OC)cc3)C/C(=C\c3ccc(OC)cc3)C2=O)cc1 (centres undefined) | > 20 µM | > 20 µM | > 20 µM | – | –
2 | CCN(CC)CCNC(=O)C1C/C(=C\c2ccc(F)cc2)C(=O)/C(=C/c2ccc(F)cc2)C1 (centres undefined) | 1.63 µM | 0.64 µM | 1.88 µM | 2.9 | inhibition [4]: Dose-dependent effect; inhibition [5]: 100%; Kd [6]: 7.93 µM; inhibition [7]: Dose-dependent effect; Activity [8]: Non-Toxic; Activity [9]: Non-Toxic; inhibition [10]: 100%; Activity (A549 [11]): Active; Activity (MDA-MB-231): Active; inhibition [12]: Active; Activity [13]: Active; Activity [14]: Non-Toxic
3 | COc1ccc(/C=C2\CC(C(=O)Nc3ccccc3)C/C(=C\c3ccc(OC)cc3)C2=O)cc1 (centres undefined) | > 20 µM | > 20 µM | > 20 µM | – | –
4 | COc1ccc(/C=C2\CC(C(=O)Nc3cccc(N4CCN(C)CC4)c3)C/C(=C\c3ccc(OC)cc3)C2=O)cc1 (centres undefined) | 10.1 µM | 3.39 µM | 3.69 µM | 3 | –
5 | COc1ccc(/C=C2\CC(C(=O)NC(C)C)C/C(=C\c3ccc(OC)cc3)C2=O)cc1 (centres undefined) | > 20 µM | > 20 µM | 15.1 µM | – | –
6 | CCN(CC)CCNC(=O)C1C/C(=C\c2ccc(OC)c(O)c2)C(=O)/C(=C/c2ccc(OC)c(O)c2)C1 (centres undefined) | > 20 µM | 6.87 µM | 8.13 µM | – | –
7 | CN1CCN(c2cccc(NC(=O)C3C/C(=C\c4ccc(F)cc4)C(=O)/C(=C/c4ccc(F)cc4)C3)c2)CC1 (centres undefined) | 5.96 µM | 0.78 µM | 3.84 µM | 7.6 | Activity [8]: Non-Toxic
8 | CN1CCN(c2ccc(NC(=O)C3C/C(=C\c4ccc(F)cc4)C(=O)/C(=C/c4ccc(F)cc4)C3)cc2)CC1 (centres undefined) | 2.63 µM | 0.59 µM | 3.17 µM | 5.4 | Activity [8]: Non-Toxic
9 | COc1ccc(/C=C2\CC(C(=O)N3CCN(C(C)=O)CC3)C/C(=C\c3ccc(OC)cc3)C2=O)cc1 (centres undefined) | 17.4 µM | 5.84 µM | 8.02 µM | 3 | –
10 | CCN(CC)CCNC(=O)C1C/C(=C\c2ccc(OC)cc2)C(=O)/C(=C/c2ccc(OC)cc2)C1 (centres undefined) | 6.89 µM | 3.78 µM | 6.47 µM | 1.8 | –
11 | COc1ccc(/C=C2\CC(C(=O)Nc3ccc(N4CCN(C)CC4)cc3)C/C(=C\c3ccc(OC)cc3)C2=O)cc1 (centres undefined) | 7.03 µM | 3.34 µM | 3.09 µM | – | Ratio IC50 (A549 [15]): 2.1
12 | CCN(CC)CCNC(=O)C1C/C(=C\c2ccccc2)C(=O)/C(=C/c2ccccc2)C1 (centres undefined) | 4.41 µM | 0.63 µM | 3.93 µM | 7 | –
13 | COc1ccc(/C=C2\CC(C(=O)N3CCN(C)CC3)C/C(=C\c3ccc(OC)cc3)C2=O)cc1 (centres undefined) | 17.6 µM | 5.46 µM | 9.07 µM | 3.2 | –
14 | COc1ccc(/C=C2\CC(C(=O)N3CCOCC3)C/C(=C\c3ccc(OC)cc3)C2=O)cc1 (centres undefined) | > 20 µM | 11.2 µM | 16.2 µM | – | –
15 | COc1ccc(/C=C2\CC(C(=O)Nc3ccc(N4CCOCC4)cc3)C/C(=C\c3ccc(OC)cc3)C2=O)cc1 (centres undefined) | 15.6 µM | 4.21 µM | 2.76 µM | – | Ratio IC50 (A549 [15]): 5.7
16 | COc1cc(/C=C/C(=O)CC(=O)/C=C/c2ccc(O)c(OC)c2)ccc1O [CURCUMIN] | 44.7 µM | 24.5 µM | 15.1 µM | – | Ratio IC50 (A549 [15]): 3
17 | COc1ccc(/C=C2\CC(C(=O)NCCO)C/C(=C\c3ccc(OC)cc3)C2=O)cc1 (centres undefined) | > 20 µM | 11.7 µM | 13.7 µM | – | –
18 | CN1CCN(c2cccc(NC(=O)C3C/C(=C\c4ccccc4)C(=O)/C(=C/c4ccccc4)C3)c2)CC1 (centres undefined) | 8.69 µM | 1.79 µM | 5.96 µM | 4.9 | –
19 | COc1ccc(/C=C2\CC(C(=O)Nc3cccc(N4CCN(C)CC4)c3)C/C(=C\c3ccc(OC)c(O)c3)C2=O)cc1O (centres undefined) | 8.29 µM | 1.6 µM | 7.53 µM | 5.2 | –
